Experimental data taken from US11357760B2, “Method of treating liver fibrosis” (ChemoCentryx, Inc., priority 2016, dated 2022).

Experiments:
[1] = system: HFD/fructose-induced NASH model; test: High fat diet (HFD)/fructose-induced NASH model; assay type: in vivo, mice C57Bl/6; details: 30 mg/kg subcutaneously once per day for 8 weeks
Text: Male wild-type (WT) mice C57Bl/6 were obtained from Jackson Laboratory and fed either with high-fat diet (D12492, 60 Cal % fat, Research Diets, New Brunswick, N.J.) with 30% fructose in the drink water or a lean control diet (D12450B, 10 Cal % fat, Research Diets) at 6-8 week of age and maintained on the respective diet for the duration of the study (16-32 weeks). […] Sirius red-staining was used to evaluate the severity of liver fibrosis. […] Formalin-fixed, paraffin-embedded liver sections were stained separately with hematoxylin & eosin (H&E) and for Sirius red Picrosirius red (#365548, Sigma) and evaluated for severity of liver fibrosis. All pathologic evaluations were made by a pathologist on a random and blinded basis. Collagen surface density was quantified using Image J (NIH). Two Sirius red-stained slides per animal were taken at different depth, with 18 images taken randomly per slide for a total of 36 images per animal for collagen quantification. Liver enzymes were assayed by Antech GLP (Morrisville, N.C.). Insulin was measured with Ultrasensitive. Mouse Insulin ELISA kit (Crystal Chem Inc: #90080); Blood glucose and insulin levels were determined after an overnight fast (14-16 h). Insulin sensitivity was determined by the homeostatic model assessment of insulin resistance (HOMA-IR). Lipids were measured in the serum and liver with a Triglyceride Colorimetric Assay kit (Cayman Chemical Company: #10010303), a Free Fatty Acid Quantification kit, (Abcam, ab65341) and Cholesterol Quantification kit (Abcam, ab65359).

MCD-induced NASH model = test: Methionine-choline deficient (MCD) induced NASH model; assay type: in vivo, mice C57Bl/6; details: Compound 1 subcutaneously, CVC orally; for serum ALT levels: FIG. 5; for trough drug level: 30 mg/kg
Experimental: Compound 1 was administered subcutaneously to maintain high systemic levels. […] Formalin-fixed, paraffin-embedded liver sections were stained separately with hematoxylin & eosin (H&E) and for Sirius red Picrosirius red (#365548, Sigma) and evaluated for severity of liver fibrosis. All pathologic evaluations were made by a pathologist on a random and blinded basis. Collagen surface density was quantified using Image J (NIH). Two Sirius red-stained slides per animal were taken at different depth, with 18 images taken randomly per slide for a total of 36 images per animal for collagen quantification. Liver enzymes were assayed by Antech GLP (Morrisville, N.C.). Insulin was measured with Ultrasensitive. Mouse Insulin ELISA kit (Crystal Chem Inc: #90080); Blood glucose and insulin levels were determined after an overnight fast (14-16 h). Insulin sensitivity was determined by the homeostatic model assessment of insulin resistance (HOMA-IR). Lipids were measured in the serum and liver with a Triglyceride Colorimetric Assay kit (Cayman Chemical Company: #10010303), a Free Fatty Acid Quantification kit, (Abcam, ab65341) and Cholesterol Quantification kit (Abcam, ab65359).

CCR5 = CCR5 (Homo sapiens, UniProt P51681); details: summary of Table 1
Sequence of CCR5 (P51681 whole entry, species assumed): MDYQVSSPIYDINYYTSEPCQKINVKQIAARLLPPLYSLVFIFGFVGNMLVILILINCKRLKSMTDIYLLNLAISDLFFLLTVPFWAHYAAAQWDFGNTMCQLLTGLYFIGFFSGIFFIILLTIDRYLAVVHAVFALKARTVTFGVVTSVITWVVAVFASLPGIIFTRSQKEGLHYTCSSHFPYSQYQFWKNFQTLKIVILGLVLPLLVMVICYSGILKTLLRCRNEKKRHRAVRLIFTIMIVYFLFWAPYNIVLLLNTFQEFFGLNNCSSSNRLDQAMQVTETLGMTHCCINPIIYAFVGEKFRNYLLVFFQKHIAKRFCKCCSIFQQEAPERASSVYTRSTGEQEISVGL
Experimental: A conventional migration assay was used to determine the efficacy of potential receptor antagonists in blocking migration mediated through MIP1b. This assay was routinely performed using the ChemoTX® (Neuroprobe) microchamber system with a 5-mum pore-sized polycarbonate membrane. CCR5 expressing cells (IL-2 Lymphocytes or L1.2CCR5 cells) were harvested by centrifugation of cell suspension at 1000 RPM on a GS-6R Beckman centrifuge. […] An equal volume of cells and compounds were mixed and incubated at room temperature for 15 minutes. Afterwards, 20 μl of the mixture was transferred onto the porous membrane of a migration microchamber, with 29 μl of MIP1b ligand (0.1 nM MIP1b protein) placed at the lower chamber. Following incubation at 37 degrees centigrade (90-minute), the assay was terminated by removing the cell drops from atop the filter. To quantify cells migrated across the membrane, 5 mul_ of 7× CyQUANT® (ThermoFisher) solution was added to each well in the lower chamber, and the fluorescence signal measured on a Spectrafluor Plus fluorescence plate reader (TECAN, Durham, N.C.). The degree of inhibition was determined by comparing migration signals between compound-treated and untreated cells. IC50 calculation was further performed by non-linear squares regression analysis using Graphpad Prism (Graphpad Software, San Diego, Calif.).

| SMILES | change in body weight compared to vehicle ([1]; FIG. 1) | serum ALT levels ([1]; FIG. 2) | serum AST levels ([1]; FIG. 2) | percentage of Sirius red staining (liver fibrosis) compared to vehicle ([1]; FIG. 4) | serum ALT levels (MCD-induced NASH model; 30 mg/kg for 8 weeks) | Sirius red-positive staining (liver fibrosis) (MCD-induced NASH model; 30 mg/kg for 8 weeks, FIG. 6) | trough drug level (MCD-induced NASH model) | CCR5 inhibition (in words) (CCR5) |
| --- | --- | --- | --- | --- | --- | --- | --- | --- |
| Cc1cnc(C(=O)c2ccnc3[nH]ccc23)c(NS(=O)(=O)c2ccc(Cl)c(C(F)(F)F)c2)c1 [Compound 1] | did not change | reduced | reduced | reduced | significantly reduces | reduces | over IC50 | – |
| CCCCOCCOc1ccc(-c2ccc3c(c2)/C=C(/C(=O)Nc2ccc([S@@+]([O-])Cc4cncn4CCC)cc2)CCCN3CC(C)C)cc1 [CVC, cenicriviroc, reference compound] | – | – | – | – | does not | – | over IC50 | potent CCR5 inhibitor |
